# Data reported in patent EP1145714A1, “DRUGS” (Takeda Chemical Industries, Ltd., priority 1998, dated 2000).
# Legend:
# [1] = system: morphine-induced vomiting in dogs; experiment: Morphine-induced vomiting in dogs, oral dosing; format: in vivo, beagle dogs; conditions: morphine 0.3 mg/kg subcutaneous
# Experimental: Male 6 or 7 beagle dogs (8.8 to 14.5 kg) per one group were used. Morphine was subcutaneously administered at 0.3 mg/0. 03 ml/kg. 2.5 hours before morphine dosing, a small amount of a feed was given to the animals. 30 minutes thereafter, predetermined doses of the compound No. 3 were orally given. To a control animal group under no fasting was orally given a predetermined volume of 0.5 % methyl cellulose solution. A predetermined dose of ondansetron was orally given to the animals under fasting. To a control animal group of ondansetron under fasting was orally given a predetermined volume of physiological saline. The frequency of vomiting was counted up to 30 minutes after morphine dosing.
# The compound No. 3 was suspended in 0.5 % methyl cellulose solution and was then orally administered at a ratio of 1 ml per 1 kg body weight. An injection of ondansetron at a concentration of 0.2 w/v % was orally dosed. Additionally, 0.5 % methyl cellulose solution was orally given at a ratio of 1 ml per 1 kg body weight, while physiological saline was orally given at a ratio of 0.5 ml per 1 kg body weight. The data relating to the frequency of vomiting, the time period (latency) until first vomiting and the time period from the occurrence of vomiting to the termination thereof were statistically analyzed by the Dunnett test or t test, with reference to the difference from the control group.
# (§1) The retching suppression ratio and vomiting suppression ratio were calculated by the following formula. [Frequency of retching or vomiting in control] - [Frequency of retching or vomiting in animals dosed with compound No. 3] / [Frequency of retching or vomiting in control] x 100 (%) [formula]
# [2] = system: cisplatin-induced acute vomiting in dogs; experiment: Cisplatin-induced acute vomiting in dogs, compound intravenously given; format: in vivo, beagle dogs; conditions: cisplatin 3 mg/kg i.v.; for Duration of vomiting (in hour;, mean ± SD) / Frequency of vomiting (mean ± SD) / Number of dogs with vomiting/number of tested dogs / Time period until first vomiting (in hour;, mean ± SD): 5 hours
# Experimental: Male or female 3 beagle dogs (7.3 to 12.0 kg) per one group were used. Cisplatin was intravenously administered at 3 mg/3 ml/kg. 30 minutes before cisplatin administration, predetermined doses of the compound No. 3 were intravenously given to the animals under fasting. Similarly, a predetermined volume of PEG 400 was intravenously given to a control animal group under fasting.
# (§2) The compound No. 3 was dissolved in PEG 400 to predetermined concentrations, for intravenous dosing at a ratio of 1 ml per 1 kg body weight. Additionally, PEG 400 was intravenously given at a ratio of 1 ml per 1 kg body weight. The data relating to the frequency of vomiting, the latency and the time period from the occurrence of vomiting to the termination thereof were statistically analyzed by the Dunnett test, with reference to the difference from the control group.
# (§3) The acute retching suppression ratio and acute vomiting suppression ratio were determined in the same manner as in Example 1,3.
# [3] = system: cisplatin-induced acute vomiting in dogs; experiment: Cisplatin-induced acute vomiting in dogs, compound orally given; format: in vivo, beagle dogs; conditions: cisplatin 3 mg/kg i.v.; for Duration of vomiting (in hour;, mean ± SD) / Frequency of vomiting (mean ± SD) / Number of dogs with vomiting/number of tested dogs / Time period until first vomiting (in hour;, mean ± SD): 5 hours
# Experimental: 3 or 4 beagle dogs (7.9 to 13.3 kg), male or female, were used per one group. Cisplatin was intravenously administered at 3 mg/3 ml/kg. One hour before cisplatin dosing, a small volume of a feed was given to the animals. 30 minutes before cisplatin administration, predetermined doses of the compound No. 3 were orally given. Similarly, 0.5 % methyl cellulose solution was orally given to the control animals under no fasting. The frequency of vomiting was counted in number, up to 5 hours after cisplatin dosing.
# The compound No. 3 was suspended in 0.5 % methyl cellulose solution to predetermined concentrations, for oral dosing at a ratio of 1 ml per 1 kg body weight. Additionally, the 0.5 % methyl cellulose solution was orally given at a ratio of 1 ml per 1 kg body weight. The data relating to the frequency of vomiting, the time period (latency) until first vomiting and the time period from the occurrence of vomiting to the termination thereof were statistically analyzed by the Dunnett test, with reference to the difference from the control group.
# as §1, with “The acute” for “The”, “and acute” for “and”, “with the” for “with”
# [4] = system: acute vomiting induced by cisplatin in ferrets; experiment: Acute vomiting induced by cisplatin in ferrets, compound intraperitoneally given; format: in vivo; conditions: 1 mg/kg i.p., cisplatin 10 mg/kg i.p.
# Experimental: 6 to 9 male ferrets (1.2 to 1.7 kg) per one group were used. Cisplatin was intraperitoneally given at 10 mg/kg. 30 minutes prior to cisplatin administration, predetermined doses of the compound No. 3 were intraperitoneally given to the animals under fasting. Similarly, PEG 400 was intraperitoneally given to a control animal group under fasting. The frequency of vomiting was counted in number, up to 5 hours after cisplatin administration.
# as §2, with “400,” for “400 to predetermined concentrations,”, “intraperitoneal” for “intravenous”, “intraperitoneally” for “intravenously”, “t” for “Dunnett”
# as §3
# [5] = 1 mg/kg p.o., under fasting, 30 minutes
smiles,measurement,setting,value
"Cc1nccn1CC1CCc2c(c3ccccc3n2C)C1=O (stereo not shown) [Ondansetron, ondansetron, reference compound]",Acute vomiting suppression ratio,[1]; 1 mg/kg p.o.,48 % NS
same,Effect on vomiting (in words),[1]; 1 mg/kg p.o.,did not suppress
same,B: Frequency of vomiting (mean ± SD),[1]; [5],1.7 ± 0.3
same,C: Time period until first vomiting (minute; mean ± SD),[1]; [5],5.0 ± 1.0 min
same,D: Duration of vomiting (minute; mean ± SD),[1]; [5],1.0 ± 0.6 min
same,Number of dogs with vomiting/number of tested dogs,[1]; [5],3/3
"Cc1ccc(-c2c3n(c(=O)c4ncccc24)CC[C@@H](C)CN(Cc2cc(C(F)(F)F)cc(C(F)(F)F)c2)C3=O)cc1 [Cpd. No.3, (9R)-7-[3,5-bis(trifluoromethyl)benzyl]-6,7,8,9,10,11-hexahydro-9-methyl-5-(4-methylphenyl)-6,13-dioxo-13H-[1,4]diazocino[2,1-g][1,7]naphthylidine]",Suppression ratio of acute vomiting,[2]; 0.3 mg/kg i.v.,34 % b
same,"Duration of vomiting (in hour;, mean ± SD)",[2]; 0.3 mg/kg i.v.,1.6 ± 0.2 h
same,Frequency of vomiting (mean ± SD),[2]; 0.3 mg/kg i.v.,12.0 ± 1.5a
same,Number of dogs with vomiting/number of tested dogs,[2]; 0.3 mg/kg i.v.,3/3
same,"Time period until first vomiting (in hour;, mean ± SD)",[2]; 0.3 mg/kg i.v.,1.6 ± 0.2 h
same,Effect on cisplatin-induced vomiting (in words),[2]; 0.3 mg/kg or higher i.v.,significantly suppressed
same,Suppression ratio of acute vomiting,[2]; 1 mg/kg i.v.,71 % b
same,"Duration of vomiting (in hour;, mean ± SD)",[2]; 1 mg/kg i.v.,1.7 ± 0.5 h
same,Frequency of vomiting (mean ± SD),[2]; 1 mg/kg i.v.,5.3 ± 1.2 a
same,Number of dogs with vomiting/number of tested dogs,[2]; 1 mg/kg i.v.,3/3
same,"Time period until first vomiting (in hour;, mean ± SD)",[2]; 1 mg/kg i.v.,1.4 ± 0.3 h
same,Effect on cisplatin-induced vomiting (in words),[2]; 3 mg/kg i.v.,almost completely suppressed
same,Suppression ratio of acute vomiting,[2]; 3 mg/kg i.v.,96 % b
same,"Duration of vomiting (in hour;, mean ± SD)",[2]; 3 mg/kg i.v.,0.1 ± 0.1 a hour
same,Frequency of vomiting (mean ± SD),[2]; 3 mg/kg i.v.,0.7 ± 0.7 a
same,Number of dogs with vomiting/number of tested dogs,[2]; 3 mg/kg i.v.,1/3
same,"Time period until first vomiting (in hour;, mean ± SD)",[2]; 3 mg/kg i.v.,3.9 ± 1.1 a hour
same,Effect on the latency (in words),[2]; i.v.,prolonged
same,Suppression ratio of acute vomiting,[3]; 1 mg/kg p.o.,18 % NS
same,"Duration of vomiting (in hour;, mean ± SD)",[3]; 1 mg/kg p.o.,1.5 ± 0.2 h
same,Frequency of vomiting (mean ± SD),[3]; 1 mg/kg p.o.,11.3 ± 0.5
same,Number of dogs with vomiting/number of tested dogs,[3]; 1 mg/kg p.o.,4/4
same,"Time period until first vomiting (in hour;, mean ± SD)",[3]; 1 mg/kg p.o.,1.6 ± 0.2 h
same,Effect on cisplatin-induced vomiting (in words),[3]; 3 mg/kg or higher p.o.,significantly suppressed
same,Suppression ratio of acute vomiting,[3]; 3 mg/kg p.o.,54 % NS
same,"Duration of vomiting (in hour;, mean ± SD)",[3]; 3 mg/kg p.o.,1.1 ± 0.2 h
same,Frequency of vomiting (mean ± SD),[3]; 3 mg/kg p.o.,6.3 ± 0.8 a
same,Number of dogs with vomiting/number of tested dogs,[3]; 3 mg/kg p.o.,4/4
same,"Time period until first vomiting (in hour;, mean ± SD)",[3]; 3 mg/kg p.o.,1.9 ± 0.1 h
same,Effect on cisplatin-induced vomiting (in words),[3]; 10 mg/kg p.o.,almost completely suppressed
same,Effect on the latency (in words),[3]; 10 mg/kg p.o.,prolonged
same,Suppression ratio of acute vomiting,[3]; 10 mg/kg p.o.,93 % b
same,"Duration of vomiting (in hour;, mean ± SD)",[3]; 10 mg/kg p.o.,0.2 ± 0.2 a hour
same,Frequency of vomiting (mean ± SD),[3]; 10 mg/kg p.o.,1.0 ± 0.7 a
same,Number of dogs with vomiting/number of tested dogs,[3]; 10 mg/kg p.o.,2/4
same,"Time period until first vomiting (in hour;, mean ± SD)",[3]; 10 mg/kg p.o.,3.6 ± 0.8 a hour
same,Acute vomiting suppression ratio,[1]; 0.1 mg/kg p.o.,55 % NS
same,B: Frequency of vomiting (mean ± 3D),"[1]; 0.1 mg/kg p.o., 30 minutes",1.0 ± 0
same,C: Time period until first vomiting (minute; mean ± SD),"[1]; 0.1 mg/kg p.o., 30 minutes",8.7 ± 1.2 min
same,D: Duration of vomiting (minute; mean ± SD),"[1]; 0.1 mg/kg p.o., 30 minutes",0 min
same,Number of dogs with vomiting/number of tested dogs,"[1]; 0.1 mg/kg p.o., 30 minutes",3/3
same,Acute vomiting suppression ratio,[1]; 0.3 mg/kg p.o.,86 % NS
same,Effect on vomiting (in words),[1]; 0.3 mg/kg p.o.,significantly suppressed
same,B: Frequency of vomiting (mean ± 3D),"[1]; 0.3 mg/kg p.o., 30 minutes",0.3 ± 0.3a
same,C: Time period until first vomiting (minute; mean ± SD),"[1]; 0.3 mg/kg p.o., 30 minutes",22.0 ± 8.0 a minute
same,D: Duration of vomiting (minute; mean ± SD),"[1]; 0.3 mg/kg p.o., 30 minutes",0 min
same,Number of dogs with vomiting/number of tested dogs,"[1]; 0.3 mg/kg p.o., 30 minutes",1/3
same,Acute vomiting suppression ratio,[1]; 1 mg/kg p.o.,100 % b
same,Effect on vomiting (in words),[1]; 1 mg/kg p.o.,completely suppressed
same,B: Frequency of vomiting (mean ± 3D),"[1]; 1 mg/kg p.o., 30 minutes",0 b
same,C: Time period until first vomiting (minute; mean ± SD),"[1]; 1 mg/kg p.o., 30 minutes",30 b minute
same,D: Duration of vomiting (minute; mean ± SD),"[1]; 1 mg/kg p.o., 30 minutes",0 min
same,Number of dogs with vomiting/number of tested dogs,"[1]; 1 mg/kg p.o., 30 minutes",0/3
same,Effect on cisplatin-induced retching and actual vomiting (in words),[4],significantly suppressed
same,Suppression ratio of acute retching,[4],53 % b
same,Suppression ratio of acute vomiting,[4],49 % a
same,"Duration of retching (in minute, mean ± SD)",[4]; 5 hours,2.6 ± 0.3 min
same,"Duration of vomiting (in minute, mean ± SD)",[4]; 5 hours,1.7 ± 0.3 b minute
same,Frequency of retching (mean ± SD),[4]; 5 hours,57.5 ± 6.2 b
same,Frequency of vomiting (mean ± SD),[4]; 5 hours,5.7 ± 1.0 a
same,Number of ferrets with retching /number of tested ferrets,[4]; 5 hours,6/6
same,Number of ferrets with vomiting /number of tested ferrets,[4]; 5 hours,6/6
same,"Time period until first retching (in minute, mean ± SD)",[4]; 5 hours,1.5 ± 0.1 min
same,"Time period until first vomiting (in minute, mean ± SD)",[4]; 5 hours,1.8 ± 0.1 min
